Test results: patent publication US12121614B2, “Delayed release composition for peroral administration” (VICORE PHARMA AB, priority 2020, dated 2024)

Assay: Dissolution studies of C21 sodium salt in buffers of different pH
Type: physicochemical
Method: 50.7 mg of C21 sodium salt (Ardena, Riga, Latvia) was added to 900 mL of 0.09M carbonate buffer (pH 8.95) at a temperature of 37±3° C. with stirring. […] After 15 minutes of stirring, 2M acetic acid solution was added dropwise to provide a pH of 4.52. Evolution CO2 was noted. […] After additional stirring for a further 1.5 hours, 1M NaOH was added to increase pH to 6.8.
51.2 mg of C21 sodium salt was added to 900 mL of acetate buffer (pH 4.4) at the same temperature with stirring. […] After stirring for 1 hour, 1M NaOH solution was added dropwise to increase the pH to 7.2.
53.2 mg of C21 sodium salt was added to 900 mL 0.1M of HCl buffer (pH 1.0) at the same temperature with stirring. […] After 20 minutes of stirring, 1M NaOH solution was added dropwise to increase the pH to 4.5.
51.0 mg of C21 sodium salt was added to 900 mL of 0.1M citrate buffer (pH 4.42) at the same temperature with stirring. The added compound formed a thin slurry. It seemed that nothing had dissolved.
50.8 mg of C21 sodium salt was added to 900 mL of an acetate buffer (pH 4.49) at the same temperature. […] After stirring for 1 hour, a 1M NaOH solution was added dropwise to increase the pH to 6.8.

CCCCOC(=O)[N-]S(=O)(=O)c1sc(CC(C)C)cc1-c1ccc(Cn2ccnc2)cc1.[Na+] [C21 sodium salt]
dissolution behaviour on addition (A) (50.7 mg in 900 mL 0.09M carbonate buffer pH 8.95, 37±3° C., stirring): dissolved instantly | dissolution behaviour on addition (E) (50.8 mg in 900 mL acetate buffer pH 4.49, 37±3° C.): formed a thin slurry which floated on the surface | dissolution behaviour on addition (D) (51.0 mg in 900 mL 0.1M citrate buffer pH 4.42, 37±3° C., stirring): formed a thin slurry. It seemed that nothing had dissolved | dissolution behaviour on addition (B) (51.2 mg in 900 mL acetate buffer pH 4.4, 37±3° C., stirring): formed a thin slurry which was floated on the surface top | dissolution behaviour on addition (C) (53.2 mg in 900 mL 0.1M HCl buffer pH 1.0, 37±3° C., stirring): dissolved instantly | appearance after raising pH (A) ((A) 1M NaOH added to pH 6.8, stirring another 1.5 hours): no significant change in appearance (small white particles) | appearance after acidification (A) ((A) 2M acetic acid added to pH 4.52, after stirring for 1 hour): formation of small white particles | appearance after raising pH (B) ((B) after 1 hour, 1M NaOH added to pH 7.2): slurry became thinner and pieces became smaller and goo-like | appearance after further stirring (B) ((B) pH 7.2, stirring another 1.5 hours): no significant change in appearance (small goo-like particles) | precipitation after raising pH (C) ((C) after 20 minutes, 1M NaOH added to pH 4.5): no precipitation was observed | appearance after further stirring (C) ((C) pH 4.5, after stirring for 2 hours): solution still was clear | decomposition of C21 by UPLC (D) ((D) citrate buffer pH 4.42, end of the experiment (7 hours)): no decomposition | appearance after further stirring (D) ((D) citrate buffer pH 4.42, stirring for 7 hours): no significant change in appearance | decomposition of C21 by UPLC (E) ((E) acetate buffer pH 4.49 then pH 6.8, end of the experiment): no decomposition | appearance after raising pH (E) ((E) after 1 hour, 1M NaOH added to pH 6.8): slurry became slightly thinner | appearance after further stirring (E) ((E) pH 6.8, stirring another hour): no significant change in appearance
